The values that follow come from publication PMC7799360, “Reprogramming immunosuppressive myeloid cells facilitates immunotherapy for colorectal cancer” (EMBO Molecular Medicine, 2020).

In data set [1] the test system is Pan02 tumors. As to the kind of experiment: Pan02 pancreatic cancer model in C57BL/6 mice. The class given is in vivo, mouse. As to conditions: Pan02, C57BL/6 mice, 75 mg/kg p.o. daily. The procedure: Syngeneic mouse tumor‐bearing models were established as described previously (Tan et al., 2018). Tumor cells (5 × 10^5 ‐ 2 × 10^6) were suspended in 100 μl PBS and implanted subcutaneously into the flank of mice. Mice were randomized into different treatment groups when tumor volumes reached 100‐200 mm^3. V = L×W^2 × 0.52, where L is the longest diameter, and W is the shortest diameter. Tumor size and body weight were recorded every second or third day. Mouse survival was analyzed using the Kaplan–Meier method.
(§1) Single agent or combination treatment was designed as follows: TP‐16 (37.5, 75, 150 mg/kg) or celecoxib (100 mg/kg) was formulated in 0.5% carboxymethylcellulose sodium (CMC‐Na, Sangon Biotech, Shanghai, China) and administered via oral gavage daily. In vivo anti‐PD1 antibody (clone RMP1‐14, BioXCell, West Lebanon, NH, USA) and rat IgG2a isotype control (clone 2A3, BioXCell) were diluted in sterile PBS and administered intraperitoneally at a dose of 50 μg twice weekly.

Data set [2] is described as follows: In vitro metabolic stability using liver microsome. The class given is in vitro ADME. As to conditions: liver microsomes. (Liver microsomes are vesicles of endoplasmic reticulum, rich in cytochrome P450 enzymes.)
Data set [3] concerns the target T1, ADRA1B (Homo sapiens, UniProt P35368).
T1 construct: Pharmaron (Beijing, China) performed the assay
As to the kind of experiment: GPCR calcium flux assay. It counts as cell-based. For orientation: A change in cytosolic calcium serves as a functional read-out for many receptors and channels.

Data set [4] has as its system mouse bone marrow cells. As to the kind of experiment: Macrophage polarization assay (M-CSF/IL-4/PGE2, M2 macrophages). The class given is cell-based. As to conditions: M-CSF/IL-4/PGE2, 6 days, concentration-dependent. The procedure: Single‐cell suspensions of mouse BM cells were prepared by filtering femurs and tibias of 6‐week‐old female BALB/c mice through 40‐μm cell strainers (Falcon). These suspensions were treated with red blood cell lysis buffer and replated in conditioned medium. Monocyte differentiation, MDSC induction, and macrophage polarization were analyzed by FACS analysis (BD Biosciences) with FlowJo software.
For macrophage polarization assay (De Henau et al., 2016; Tan et al., 2018), mouse BM cells were cultured in RPMI1640 medium supplemented with recombinant mouse M‐CSF (20 ng/ml, Peprotech) to generate BM‐derived macrophages (BMDM). For FACS analysis of BM‐derived M2‐like macrophage, IL‐4 (20 ng/ml, Peprotech) and PGE2 (10 nM) were added on day 0. TP‐16 was added simultaneously with PGE2 on day 0 or sequentially on day 3 for differentiation over a period of 6 days. For qPCR analysis of macrophages (day 6), BMDMs were polarized with IFNγ (50 ng/ml, Peprotech) or IL‐4 (20 ng/ml, Peprotech) ± PGE2 (10 nM) ± TP‐16 for 24 h at 37°C on day 6. The culture medium was refreshed every 3 days.

The target in data set [5] is T2, HTR2B (Homo sapiens, UniProt P41595).
T2 construct: Pharmaron (Beijing, China), contract laboratory
T2 sequence (P41595 whole entry, species assumed): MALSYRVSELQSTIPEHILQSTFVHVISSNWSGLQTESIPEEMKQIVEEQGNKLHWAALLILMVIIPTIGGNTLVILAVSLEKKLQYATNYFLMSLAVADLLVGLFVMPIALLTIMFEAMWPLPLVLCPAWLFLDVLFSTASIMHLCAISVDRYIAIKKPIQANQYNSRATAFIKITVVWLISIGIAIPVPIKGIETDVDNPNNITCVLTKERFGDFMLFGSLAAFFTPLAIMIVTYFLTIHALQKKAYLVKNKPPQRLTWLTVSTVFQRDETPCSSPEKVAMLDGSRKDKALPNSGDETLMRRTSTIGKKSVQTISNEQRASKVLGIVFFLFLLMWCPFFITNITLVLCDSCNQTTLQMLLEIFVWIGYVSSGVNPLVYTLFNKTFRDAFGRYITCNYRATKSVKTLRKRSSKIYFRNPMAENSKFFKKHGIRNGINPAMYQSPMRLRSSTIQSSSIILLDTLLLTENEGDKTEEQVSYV
As to the kind of experiment: GPCR calcium flux assay. It counts as cell-based.

In data set [6] the target is CB1 (Homo sapiens, UniProt P21554). Nature of the data set: LANCE Ultra cAMP assay. For orientation: TR-FRET usually uses a lanthanide donor and a delayed reading to cut background.
CB1, sequence (P21554 whole entry, species assumed): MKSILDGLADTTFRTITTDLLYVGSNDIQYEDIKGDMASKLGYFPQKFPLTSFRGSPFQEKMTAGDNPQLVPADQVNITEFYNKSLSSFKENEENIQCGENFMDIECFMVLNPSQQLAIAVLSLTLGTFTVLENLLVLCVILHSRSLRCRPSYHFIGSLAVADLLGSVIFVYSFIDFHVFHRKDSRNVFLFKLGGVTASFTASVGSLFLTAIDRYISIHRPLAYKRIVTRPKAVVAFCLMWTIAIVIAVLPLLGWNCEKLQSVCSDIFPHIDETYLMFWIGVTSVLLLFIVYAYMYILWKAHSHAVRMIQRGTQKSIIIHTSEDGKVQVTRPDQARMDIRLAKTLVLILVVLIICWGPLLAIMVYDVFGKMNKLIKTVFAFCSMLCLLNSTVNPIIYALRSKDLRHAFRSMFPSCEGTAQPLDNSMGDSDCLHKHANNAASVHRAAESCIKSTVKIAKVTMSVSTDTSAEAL
For data set [7], the system named is AOM/DSS-induced colorectal tumors. Nature of the data set: AOM/DSS-induced colorectal cancer model. As to conditions: AOM/DSS mice, TP-16 75 mg/kg po daily, anti-PD-1 50 μg ip twice weekly, 5 weeks. The class given is in vivo, mouse. The procedure:
; i.p.; Sigma‐Aldrich, St. Louis, MO, USA). After 1 week of rest, mice were provided with 2.5% DSS (MP Biomedicals, Santa Ana, CA, USA) in their drinking water for 5 days, followed by DSS‐free water for two weeks. The DSS treatment cycle was carried out three times in total, and mice were randomized into four groups and subjected to the therapeutic protocol. Mice were sacrificed at 37 days after the indicated treatments.
as §1

In data set [8] the test system is DLD1. As to the kind of experiment: Cell viability (MTS). It counts as cell-based, human. As to conditions: DLD1, 100 µM. The text has this:
(§2) The murine colon cancer (CT26), murine breast cancer (4T1), and human colon cancer (HCT116, HCT8, HT29, and DLD1) cell lines were obtained from American Type Culture Collection (ATCC). The murine cell lines of melanoma (B16F10), pancreatic cancer (Pan02), and colon cancer (MC38), Chinese hamster ovary (CHO) cell line, and human embryonic kidney cell lines (HEK293 and HEK293T) were purchased from the National Infrastructure of Cell Line Resource (Shanghai, China). Primary human endothelial cells (HUVECs) were kindly provided by Dr. Xinli Wang (Baylor College of Medicine, Houston, TX, USA) and cultured in endothelial cell medium (ScienCell, San Diego, CA, USA) according to the manufacturer’s instructions. The CHO‐Gα16 cell line was established in our previous study and maintained in DMEM/F12 medium containing puromycin (4 μg/ml) (Wu et al., 2018). Cell lines were maintained in vendor recommended growth medium supplemented with 10% FBS (Gibco, Waltham, MA, USA) and 1% penicillin/streptomycin solution (Gibco) at 37°C ins a humidified atmosphere (5% CO2). All cell lines were authenticated using short tandem repeat analysis. All cell lines were confirmed to be mycoplasma‐free by polymerase chain reaction (PCR) analysis. Cell viability was determined using CellTiter 96 ® Aqueous One Solution (Promega, Madison, WI).
(§3) Appendix Figure S1. […]. The cytotoxicity curves
(§4) . Mouse cancer cells: CT26
(§5) . Human colon cancer cells: HCT116 (E),
(§6) HCT8 (F), HT29 (G) and DLD1 (H). Human normal cell line: HUVECs (I). Cell
(§7) viability was measured by MTS. Data are presented as mean ± SEM derived
(§8) from three independent experiments (n=3).
(§9) (1 picture or pasted object on this page, not shown here)

The subject of data set [9] is HUVEC. Nature of the data set: Cell viability (MTS). It counts as cell-based, human. As to conditions: 100 µM.
Description: as §2, §3, §4, §5, §6, §7, §8, §9

Data set [10] has as its system HCT8. As to the kind of experiment: Cell viability (MTS). The class given is cell-based, human. As to conditions: HCT8, 100 µM.
Description: as §2, §3, §4, §5, §6, §7, §8, §9

A word on the hepatocyte CLint: it is a measure of how fast metabolising enzymes remove a compound, apart from limits set by blood flow. Low values mean slow turnover, high ones rapid turnover. What is called IC50 is the concentration at which inhibition is half-maximal.

Each structure is given as a SMILES string. Bounds are passed on as bounds.

T1 sequence (P35368 whole entry, species assumed): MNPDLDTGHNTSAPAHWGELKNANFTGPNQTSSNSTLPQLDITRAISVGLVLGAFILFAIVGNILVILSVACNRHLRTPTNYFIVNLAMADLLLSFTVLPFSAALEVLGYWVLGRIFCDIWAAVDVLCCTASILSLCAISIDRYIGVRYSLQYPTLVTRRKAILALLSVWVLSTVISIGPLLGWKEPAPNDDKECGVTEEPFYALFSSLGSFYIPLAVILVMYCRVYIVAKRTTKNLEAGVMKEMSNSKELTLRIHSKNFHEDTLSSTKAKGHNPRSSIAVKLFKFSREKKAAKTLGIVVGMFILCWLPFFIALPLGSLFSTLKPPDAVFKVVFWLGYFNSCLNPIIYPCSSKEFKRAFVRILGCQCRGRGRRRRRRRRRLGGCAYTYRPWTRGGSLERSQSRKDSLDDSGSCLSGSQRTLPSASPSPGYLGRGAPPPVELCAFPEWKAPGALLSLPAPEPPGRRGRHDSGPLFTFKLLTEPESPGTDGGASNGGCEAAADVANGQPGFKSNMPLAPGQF

Consider `C[C@H](NC(=O)c1c(Cc2ccc(F)cc2)sc2c1CCOC2)c1ccc(C(=O)O)cc1` [TP-16], for which the “%TGI” value in [1] is listed as 44.0%. Moreover, the CLhep predicted in [2] (human, read-out: Predicted hepatic Clint) was < 4.69 mL/min/kg. For the same molecule, in [2] (human liver microsome), the hepatocyte CLint is < 2.39 µL/min/1e6 cells. The half-life in [2] (human liver microsome, read-out: In vitro T1/2) was > 581 min. Further, the CLint scaled in [2] (human liver microsome, read-out: Scale-up Clint) was < 6.07 mL/min/kg. Besides, the concentration for half-maximal inhibition (IC50) in data set [3], in [5] and in [6] was > 10 µM each time. Also, in [4], the “PGE2-induced polarization of M2 macrophages” value was “significantly suppressed”. Moreover, in data set [7], the “tumor number (multiplicity) and size” value is reported as “moderately reduced”. Besides, the “effect on cell viability” value in data set [8], in data set [9] and in [10] was “did not affect the viability” each time.
